In patent US20240317706A1, “COMPOUNDS THAT MEDIATE PROTEIN DEGRADATION AND METHODS OF USE THEREOF” (Monte Rosa Therapeutics, Inc., priority 2021, published 2024):

Legend:
[1] = target: T1, CDK2 (Homo sapiens, UniProt P24941); assay: NanoBiT assay (CDK2 degradation); assay type: cell-based; details: 24 hours; for Dmax: HEK293, HEK293 clonal line with CRISPR KI HiBiT tag on CDK2, Endurazine live cell substrate; for CDK2 NanoBiT Dmax (%): HEK293 clonal line with CRISPR KI HiBiT tag on CDK2, Endurazine live cell substrate
T1 construct: HEK293 clonal lines with CRISPR KI HiBiT tag on CDK2 proteins; host or cells: HEK293 clonal line, CRISPR knock-in HiBiT-CDK2, stably expressing LgBiT
Procedure, shortened: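 HEK293 cells with endogenous HiBiT-tagged CDK2 knock-in and stable LgBiT, with Endurazine live-cell substrate; cells were dosed with compound (30 μM stock) for 24 h at 37 °C, then luminescence was read. Response normalised to plate negative/positive controls and fitted to a 3-parameter logistic (hillslope=1) for EC50.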

[2] = target: CRBN-DDB1 (Homo sapiens, UniProt Q96SW2); assay: Compound binding to CRBN by HTRF assay; details: CRBN-DDB1 2.5 nM, Cy5-Thalidomide 100 nM, 30 min; Ki from geometric mean IC50 by Cheng-Prustoff transformation
CRBN-DDB1, sequence (Q96SW2 whole entry): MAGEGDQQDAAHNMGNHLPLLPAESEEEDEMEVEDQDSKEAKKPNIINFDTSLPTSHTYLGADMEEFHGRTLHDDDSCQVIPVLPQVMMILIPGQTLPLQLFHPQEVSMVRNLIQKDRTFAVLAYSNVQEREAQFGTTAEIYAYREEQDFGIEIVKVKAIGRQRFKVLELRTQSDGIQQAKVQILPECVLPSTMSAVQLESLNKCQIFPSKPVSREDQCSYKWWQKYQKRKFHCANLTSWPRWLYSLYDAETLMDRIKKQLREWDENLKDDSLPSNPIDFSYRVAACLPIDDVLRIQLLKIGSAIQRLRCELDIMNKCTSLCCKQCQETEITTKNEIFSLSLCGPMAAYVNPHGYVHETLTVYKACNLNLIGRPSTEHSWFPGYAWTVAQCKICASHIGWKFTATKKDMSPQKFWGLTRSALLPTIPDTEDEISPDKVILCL
CRBN-DDB1, sequence (Q16531 whole entry partner): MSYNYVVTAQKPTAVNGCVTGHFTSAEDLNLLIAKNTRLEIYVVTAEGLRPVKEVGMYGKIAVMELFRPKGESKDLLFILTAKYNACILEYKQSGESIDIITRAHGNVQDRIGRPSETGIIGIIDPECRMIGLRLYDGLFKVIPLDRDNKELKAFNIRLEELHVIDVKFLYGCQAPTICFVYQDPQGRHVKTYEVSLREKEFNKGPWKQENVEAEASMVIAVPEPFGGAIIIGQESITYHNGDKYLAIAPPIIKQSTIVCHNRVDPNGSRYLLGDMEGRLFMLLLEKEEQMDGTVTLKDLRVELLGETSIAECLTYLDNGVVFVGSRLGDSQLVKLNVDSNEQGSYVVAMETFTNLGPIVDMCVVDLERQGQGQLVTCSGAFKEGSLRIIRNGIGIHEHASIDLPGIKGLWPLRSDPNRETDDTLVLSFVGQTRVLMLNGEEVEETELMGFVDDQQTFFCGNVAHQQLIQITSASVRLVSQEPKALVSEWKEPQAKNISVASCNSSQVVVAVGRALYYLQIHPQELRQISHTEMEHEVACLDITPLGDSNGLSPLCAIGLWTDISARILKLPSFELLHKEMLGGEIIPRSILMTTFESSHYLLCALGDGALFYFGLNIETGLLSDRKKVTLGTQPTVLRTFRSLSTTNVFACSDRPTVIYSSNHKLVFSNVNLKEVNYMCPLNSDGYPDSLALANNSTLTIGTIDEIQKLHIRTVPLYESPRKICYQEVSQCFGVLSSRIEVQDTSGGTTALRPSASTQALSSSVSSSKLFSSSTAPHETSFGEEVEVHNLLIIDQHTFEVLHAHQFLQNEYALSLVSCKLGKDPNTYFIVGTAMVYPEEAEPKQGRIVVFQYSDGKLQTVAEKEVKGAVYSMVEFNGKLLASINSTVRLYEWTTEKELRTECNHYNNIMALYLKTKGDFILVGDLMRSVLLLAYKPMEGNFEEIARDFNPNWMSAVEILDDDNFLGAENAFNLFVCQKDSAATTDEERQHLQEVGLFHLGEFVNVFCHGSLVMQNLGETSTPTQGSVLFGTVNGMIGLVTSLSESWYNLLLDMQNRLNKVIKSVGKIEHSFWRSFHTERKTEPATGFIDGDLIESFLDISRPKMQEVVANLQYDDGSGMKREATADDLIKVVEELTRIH
Procedure, shortened: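 HTRF displacement of Cy5-thalidomide probe (100 nM) from His-CRBN-DDB1 (2.5 nM) with anti-His terbium cryptate, in HEPES/NaCl/TCEP/EDTA/Tween20 buffer. 10-point 1:3 compound series, 30 min at ambient temperature; signal normalised to DMSO and lenalidomide controls, IC50 fitted and Ki derived by Cheng-Prusoff.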

| SMILES | Dmax [1] [%] | Ki [2] [nM] | CDK2 NanoBiT Dmax (%) [1] |
| --- | --- | --- | --- |
| O=C1CCC(N2Cc3ccc(CNc4nnc(C5CC6(CCC6)C5)o4)c(O)c3C2=O)C(=O)N1 (stereo not shown) [Compound 135, 3-(7-hydroxy-1-oxo-6-(((5-(spiro[3.3]heptan-2-yl)-1,3,4-oxadiazol-2-yl)amino)methyl)isoindolin-2-yl)piperidine-2,6-dione] | 50 to 80 | 100 to 1000 |  |
| O=C1CCC(N2Cc3ccc(CNc4nnc(C5CC6(CCC6)C5)o4)cc3C2=O)C(=O)N1 (stereo not shown) [Compound 136, 3-(1-oxo-6-(((5-(spiro[3.3]heptan-2-yl)-1,3,4-oxadiazol-2-yl)amino)methyl)isoindolin-2-yl)piperidine-2,6-dione] | 50 to 80 | 100 to 1000 |  |
| O=C1CCC(N2Cc3c(Br)cc(CNc4nnc(C5CC6(CCC6)C5)o4)c(O)c3C2=O)C(=O)N1 (stereo not shown) [Compound 137, 3-(4-bromo-7-hydroxy-1-oxo-6-(((5-(spiro[3.3]heptan-2-yl)-1,3,4-oxadiazol-2-yl)amino)methyl)isoindolin-2-yl)piperidine-2,6-dione] | 50 to 80 | ≤ 100 |  |
| O=C1CCC(N2Cc3c(Br)cc(CNc4nnc(C5CC6(CCC6)C5)o4)cc3C2=O)C(=O)N1 (stereo not shown) [Compound 138, 3-(4-bromo-1-oxo-6-(((5-(spiro[3.3]heptan-2-yl)-1,3,4-oxadiazol-2-yl)amino)methyl)isoindolin-2-yl)piperidine-2,6-dione] | 50 to 80 | ≤ 100 |  |
| O=C1CCC(N2Cc3c(cc(CNc4nnc(C5CC6(CCC6)C5)o4)cc3C(F)(F)F)C2=O)C(=O)N1 (stereo not shown) [Compound 139, 3-(1-oxo-6-(((5-(spiro[3.3]heptan-2-yl)-1,3,4-oxadiazol-2-yl)amino)methyl)-4-(trifluoromethyl)isoindolin-2-yl)piperidine-2,6-dione] |  | 100 to 1000 | C (C represents a Dmax value of >50% and ≤80%) |
| O=C1CCC(N2Cc3c(Cl)cc(CNc4nnc(C5CC6(CCC6)C5)o4)cc3C2=O)C(=O)N1 (stereo not shown) [Compound 140, 3-(4-chloro-1-oxo-6-(((5-(spiro[3.3]heptan-2-yl)-1,3,4-oxadiazol-2-yl)amino)methyl)isoindolin-2-yl)piperidine-2,6-dione] | 50 to 80 | 100 to 1000 |  |
| O=C1CCC(N2Cc3ccc(CNc4nnc(C5CCCCC5)o4)cc3C2=O)C(=O)N1 (stereo not shown) [Compound 141, 3-(6-(((5-cyclohexyl-1,3,4-oxadiazol-2-yl)amino)methyl)-1-oxoisoindolin-2-yl)piperidine-2,6-dione] | 10 to 50 | 100 to 1000 |  |
| O=C1CCC(N2Cc3c(F)cc(CNc4nnc(C5CC6(CCC6)C5)o4)cc3C2=O)C(=O)N1 (stereo not shown) [Compound 142, 3-(4-fluoro-1-oxo-6-(((5-(spiro[3.3]heptan-2-yl)-1,3,4-oxadiazol-2-yl)amino)methyl)isoindolin-2-yl)piperidine-2,6-dione] | 50 to 80 | 100 to 1000 |  |
| O=C1CCC(N2Cc3c(cc(CNc4nnc(C5CC6(CCC6)C5)o4)cc3C(F)F)C2=O)C(=O)N1 (stereo not shown) [Compound 143, 3-(4-(difluoromethyl)-1-oxo-6-(((5-(spiro[3.3]heptan-2-yl)-1,3,4-oxadiazol-2-yl)amino)methyl)isoindolin-2-yl)piperidine-2,6-dione] | 10 to 50 | ≤ 100 |  |
| Nc1c(CNc2nnc(C3CC4(CCC4)C3)o2)ccc2c1C(=O)N(C1CCC(=O)NC1=O)C2 (stereo not shown) [Compound 144, 3-(7-amino-1-oxo-6-(((5-(spiro[3.3]heptan-2-yl)-1,3,4-oxadiazol-2-yl)amino)methyl)isoindolin-2-yl)piperidine-2,6-dione] | 10 to 50 | 100 to 1000 |  |
| O=C1CCC(N2Cc3c(cc(CNc4nnc(C5CC6(CCC6)C5)o4)cc3C(F)(F)F)C2=O)C(=O)N1 (stereo not shown) [Compound 145, 3-(1-oxo-6-(((5-(spiro[3.3]heptan-2-yl)-1,3,4-oxadiazol-2-yl)amino)methyl)-4-(trifluoromethyl)isoindolin-2-yl)piperidine-2,6-dione] |  | 100 to 1000 | B (B represents a Dmax value of >10% and ≤50%) |
